Laboratory results taken from publication PMC5218480 (PLoS ONE, 2017).

System: MV-4-11 cells
Assay: Gene expression microarray analysis (Affymetrix PrimeView) and GSEA
Assay type: cell-based, human
Set-up: RFU PODN (11730768_x_at) / Fold change /veh PODN (11730768_x_at) / RFU LINC00158 (11744669_a_at) / Fold change /veh LINC00158 (11744669_a_at) / RFU DUSP10 (11751237_a_at) / Fold change /veh DUSP10 (11751237_a_at) / RFU ID3 (11757404_x_at) / Fold change /veh ID3 (11757404_x_at) / RFU PLEKHG5 (11737974_s_at) / Fold change /veh PLEKHG5 (11737974_s_at) / RFU LRRC4B (11730491_at) / Fold change /veh LRRC4B (11730491_at) / RFU GIMAP4 (11747438_a_at) / Fold change /veh GIMAP4 (11747438_a_at) / RFU KRT8 (11758183_x_at) / Fold change /veh KRT8 (11758183_x_at) / RFU CNN1 (11734310_a_at) / Fold change /veh CNN1 (11734310_a_at) / RFU VPS37D (11726825_at) / Fold change /veh VPS37D (11726825_at) / RFU C10orf10 (11716522_x_at) / Fold change /veh C10orf10 (11716522_x_at) / RFU KIR2DL2 /// KIR2DL4 /// KIR2DL5A /// KIR2DL5B /// KIR2DS1 /// KIR2DS2 /// KIR2DS3 /// KIR2DS4 /// KIR3DL3 /// KIR3DL3 /// KIR3DS1 (11738374_at) / Fold change /veh KIR2DL2 /// KIR2DL4 /// KIR2DL5A /// KIR2DL5B /// KIR2DS1 /// KIR2DS2 /// KIR2DS3 /// KIR2DS4 /// KIR3DL3 /// KIR3DL3 /// KIR3DS1 (11738374_at) / RFU C1QL1 (11718748_at) / Fold change /veh C1QL1 (11718748_at) / RFU TMPRSS4 (11747572_a_at) / Fold change /veh TMPRSS4 (11747572_a_at) / RFU HAMP (11756126_x_at) / Fold change /veh HAMP (11756126_x_at) / RFU RNFT2 (11725882_a_at) / Fold change /veh RNFT2 (11725882_a_at) / RFU NR4A2 (11747474_a_at) / Fold change /veh NR4A2 (11747474_a_at) / RFU ABCC12 (11746883_a_at) / Fold change /veh ABCC12 (11746883_a_at) / RFU TMEM136 (11760407_x_at) / Fold change /veh TMEM136 (11760407_x_at) / RFU CLDN22 /// WWC2 (11732394_at) / Fold change /veh CLDN22 /// WWC2 (11732394_at) / RFU HLA-DPB1 (11760878_x_at) / Fold change /veh HLA-DPB1 (11760878_x_at) / RFU SPINT1 (11716480_a_at) / Fold change /veh SPINT1 (11716480_a_at) / RFU GAP43 (11754022_s_at) / Fold change /veh GAP43 (11754022_s_at) / RFU A4GNT (11735810_at) / Fold change /veh A4GNT (11735810_at) / RFU PRB3 (11715151_x_at) / Fold change /veh PRB3 (11715151_x_at) / RFU TUBB4B (11761932_at) / Fold change /veh TUBB4B (11761932_at) / RFU CAPN14 (11732068_a_at) / Fold change /veh CAPN14 (11732068_a_at) / RFU TMCC2 (11721928_a_at) / Fold change /veh TMCC2 (11721928_a_at) / RFU IRGQ (11745062_a_at) / Fold change /veh IRGQ (11745062_a_at) / RFU FAM174B (11720279_a_at) / Fold change /veh FAM174B (11720279_a_at) / RFU TMPRSS4 (11748680_a_at) / Fold change /veh TMPRSS4 (11748680_a_at) / RFU FAM212B (11763350_a_at) / Fold change /veh FAM212B (11763350_a_at) / RFU PLEKHG5 (11743358_a_at) / Fold change /veh PLEKHG5 (11743358_a_at) / RFU ZSCAN30 (11745921_a_at) / Fold change /veh ZSCAN30 (11745921_a_at) / RFU CMKLR1 (11741424_a_at) / Fold change /veh CMKLR1 (11741424_a_at) / RFU LOC101060620 /// MAPK8IP1 (11723275_at) / Fold change /veh LOC101060620 /// MAPK8IP1 (11723275_at) / RFU SPTSSB (11747773_x_at) / Fold change /veh SPTSSB (11747773_x_at) / RFU PRSS12 (11739890_at) / Fold change /veh PRSS12 (11739890_at) / RFU BIN1 (11741810_x_at) / Fold change /veh BIN1 (11741810_x_at) / RFU WNT11 (11732464_a_at) / Fold change /veh WNT11 (11732464_a_at) / RFU C10orf10 (11716521_a_at) / Fold change /veh C10orf10 (11716521_a_at) / RFU C5orf56 (11738089_at) / Fold change /veh C5orf56 (11738089_at) / RFU CYB561 (11721691_x_at) / Fold change /veh CYB561 (11721691_x_at) / RFU ANKRD19P (11752326_a_at) / Fold change /veh ANKRD19P (11752326_a_at) / RFU OR2T12 /// OR2T33 /// OR2T8 (11738714_s_at) / Fold change /veh OR2T12 /// OR2T33 /// OR2T8 (11738714_s_at) / RFU VCAN (11748164_a_at) / Fold change /veh VCAN (11748164_a_at) / RFU JSRP1 (11732532_at) / Fold change /veh JSRP1 (11732532_at) / RFU KRTAP10-11 (11738290_x_at) / Fold change /veh KRTAP10-11 (11738290_x_at) / RFU MYO3A (11730013_a_at) / Fold change /veh MYO3A (11730013_a_at) / RFU EBF3 (11725865_a_at) / Fold change /veh EBF3 (11725865_a_at) / RFU CAMK2N1 (11719241_x_at) / Fold change /veh CAMK2N1 (11719241_x_at) / RFU C5orf56 (11738088_a_at) / Fold change /veh C5orf56 (11738088_a_at) / RFU OLFML3 (11715873_a_at) / Fold change /veh OLFML3 (11715873_a_at) / RFU LOC100653217 /// NTM (11731650_a_at) / Fold change /veh LOC100653217 /// NTM (11731650_a_at) / RFU MAPK11 (11762145_a_at) / Fold change /veh MAPK11 (11762145_a_at) / RFU FIZ1 (11724087_x_at) / Fold change /veh FIZ1 (11724087_x_at) / RFU OASL (11726364_x_at) / Fold change /veh OASL (11726364_x_at) / RFU SOX15 (11748057_x_at) / Fold change /veh SOX15 (11748057_x_at) / RFU CD79A (11719716_a_at) / Fold change /veh CD79A (11719716_a_at) / RFU HIST1H1D (11736915_at) / Fold change /veh HIST1H1D (11736915_at) / RFU CASKIN2 (11723855_a_at) / Fold change /veh CASKIN2 (11723855_a_at) / RFU LOC730098 (11760151_x_at) / Fold change /veh LOC730098 (11760151_x_at) / RFU OR4N2 (11742367_at) / Fold change /veh OR4N2 (11742367_at) / RFU PRRT2 (11749266_a_at) / Fold change /veh PRRT2 (11749266_a_at) / RFU SNX32 (11753110_a_at) / Fold change /veh SNX32 (11753110_a_at) / RFU CDHR5 (11726645_a_at) / Fold change /veh CDHR5 (11726645_a_at) / RFU RCAN1 (11760418_a_at) / Fold change /veh RCAN1 (11760418_a_at) / RFU FAM167A (11723789_a_at) / Fold change /veh FAM167A (11723789_a_at) / RFU FAM26E (11764081_at) / Fold change /veh FAM26E (11764081_at) / RFU ISYNA1 (11749810_s_at) / Fold change /veh ISYNA1 (11749810_s_at) / RFU ACY1 (11761880_at) / Fold change /veh ACY1 (11761880_at) / RFU 11764098_at / Fold change /veh 11764098_at / RFU SAMD14 (11745864_x_at) / Fold change /veh SAMD14 (11745864_x_at) / RFU NPB (11741838_a_at) / Fold change /veh NPB (11741838_a_at) / RFU TMPRSS6 (11731388_a_at) / Fold change /veh TMPRSS6 (11731388_a_at) / RFU KRTAP10-2 (11738614_at) / Fold change /veh KRTAP10-2 (11738614_at) / RFU ARHGAP8 /// PRR5-ARHGAP8 (11727945_x_at) / Fold change /veh ARHGAP8 /// PRR5-ARHGAP8 (11727945_x_at) / RFU KRTAP5-7 /// NADSYN1 (11734609_at) / Fold change /veh KRTAP5-7 /// NADSYN1 (11734609_at) / RFU RASL12 (11751679_a_at) / Fold change /veh RASL12 (11751679_a_at) / RFU CDKN2B (11736163_a_at) / Fold change /veh CDKN2B (11736163_a_at) / RFU PRF1 (11729649_at) / Fold change /veh PRF1 (11729649_at) / RFU, ZNF638 /// ZNF638-IT1 / Fold change vs veh, ZNF638 /// ZNF638-IT1 / RFU, PANK3 / Fold change vs veh, PANK3 / RFU, SH3YL1 / Fold change vs veh, SH3YL1 / RFU, ZEB2 / Fold change vs veh, ZEB2 / RFU, NRIP1 / Fold change vs veh, NRIP1 / RFU, PTTG1IP / Fold change vs veh, PTTG1IP / RFU, CAPN2 / Fold change vs veh, CAPN2 / RFU, MED14 / Fold change vs veh, MED14 / RFU, SNORA58 / Fold change vs veh, SNORA58 / RFU, C1orf63 / Fold change vs veh, C1orf63 / RFU, LRRFIP1 / Fold change vs veh, LRRFIP1 / RFU, NDUFAF7 / Fold change vs veh, NDUFAF7 / RFU, SLC12A2 / Fold change vs veh, SLC12A2 / RFU, IBTK / Fold change vs veh, IBTK / RFU, ESF1 / Fold change vs veh, ESF1 / Fold change vs veh, TMEM50B / RFU, TAOK1 / Fold change vs veh, TAOK1 / RFU, ACBD3 / Fold change vs veh, ACBD3 / RFU, TMA16 / Fold change vs veh, TMA16 / RFU, RWDD3 / Fold change vs veh, RWDD3 / RFU, BCAT1 / Fold change vs veh, BCAT1 / RFU, EDEM3 / Fold change vs veh, EDEM3 / RFU, TMEM33 / Fold change vs veh, TMEM33 / RFU, WDR75 / Fold change vs veh, WDR75 / RFU, AHCTF1 / Fold change vs veh, AHCTF1 / RFU, TFRC / Fold change vs veh, TFRC / RFU, ZDHHC17 / Fold change vs veh, ZDHHC17 / RFU, NOM1 / Fold change vs veh, NOM1 / RFU, ARL8B / Fold change vs veh, ARL8B / RFU, ZBTB11 / Fold change vs veh, ZBTB11 / RFU, TAMM41 / Fold change vs veh, TAMM41 / RFU, KIAA1704 /// LOC100996395 / Fold change vs veh, KIAA1704 /// LOC100996395 / RFU, ING1 / Fold change vs veh, ING1 / RFU, TRMT61B / Fold change vs veh, TRMT61B / RFU, FUBP3 / Fold change vs veh, FUBP3 / RFU, TP53 / Fold change vs veh, TP53 / RFU, TNKS2 / Fold change vs veh, TNKS2 / RFU, ZFP14 / Fold change vs veh, ZFP14 / RFU, ACTR2 / Fold change vs veh, ACTR2 / RFU, PPP3R1 / Fold change vs veh, PPP3R1 / RFU, PIK3R1 / Fold change vs veh, PIK3R1 / RFU, HNRNPA1 / Fold change vs veh, HNRNPA1 / RFU, RNF170 / Fold change vs veh, RNF170 / RFU, ZNF28 / Fold change vs veh, ZNF28 / RFU, RNGTT / Fold change vs veh, RNGTT / RFU, OGT / Fold change vs veh, OGT / RFU, BRD1 / Fold change vs veh, BRD1 / RFU, MARS / Fold change vs veh, MARS / RFU, ZNF655 / Fold change vs veh, ZNF655 / RFU, FAHD1 / Fold change vs veh, FAHD1 / RFU, BDP1 / Fold change vs veh, BDP1 / RFU, LRRCC1 / Fold change vs veh, LRRCC1 / RFU, ARID1A / Fold change vs veh, ARID1A / RFU, ZNF146 / Fold change vs veh, ZNF146 / RFU, ZNF330 / Fold change vs veh, ZNF330 / RFU, GPN3 / Fold change vs veh, GPN3 / RFU, C9orf123 / Fold change vs veh, C9orf123 / RFU, N4BP2L2 / Fold change vs veh, N4BP2L2 / RFU, ARFIP1 / Fold change vs veh, ARFIP1 / RFU, FAM179B / Fold change vs veh, FAM179B / RFU, BCL10 / Fold change vs veh, BCL10 / RFU, UHRF1BP1L / Fold change vs veh, UHRF1BP1L / RFU, BET1 / Fold change vs veh, BET1 / RFU, CNOT2 / Fold change vs veh, CNOT2 / RFU, ZNF268 / Fold change vs veh, ZNF268 / Fold change vs veh, ZNF507 / RFU, DGCR2 / Fold change vs veh, DGCR2 / RFU, WDSUB1 / Fold change vs veh, WDSUB1 / Fold change vs veh, HSP90B1 /// MIR3652 / RFU, ADSS / Fold change vs veh, ADSS / RFU, GK / Fold change vs veh, GK / RFU, ZNF148 / Fold change vs veh, ZNF148 / RFU, TAF9 / Fold change vs veh, TAF9 / RFU, SLC1A5 / Fold change vs veh, SLC1A5 / RFU, SLMO2 / Fold change vs veh, SLMO2 / RFU, ABCC4 / Fold change vs veh, ABCC4 / RFU, LOC101060439 /// RAP1B / Fold change vs veh, LOC101060439 /// RAP1B / RFU, RFX7 / Fold change vs veh, RFX7 / RFU, GTPBP10 / Fold change vs veh, GTPBP10 / RFU, CNEP1R1 / Fold change vs veh, CNEP1R1 / RFU, BIVM-ERCC5 /// ERCC5 / Fold change vs veh, BIVM-ERCC5 /// ERCC5 / RFU, ILF3 / Fold change vs veh, ILF3 / RFU 11762660_at / Fold change /veh 11762660_at / RFU VCAN (11757783_s_at) / Fold change /veh VCAN (11757783_s_at) / RFU DDX43 (11728927_at) / Fold change /veh DDX43 (11728927_at) / RFU KRT8 (11758188_x_at) / Fold change /veh KRT8 (11758188_x_at) / RFU NKD1 (11759106_at) / Fold change /veh NKD1 (11759106_at) / RFU SRD5A1 (11742802_a_at) / Fold change /veh SRD5A1 (11742802_a_at) / RFU TPSAB1 /// TPSB2 (11721975_s_at) / Fold change /veh TPSAB1 /// TPSB2 (11721975_s_at) / RFU GSTM3 (11746129_a_at) / Fold change /veh GSTM3 (11746129_a_at) / RFU IL23R (11737362_x_at) / Fold change /veh IL23R (11737362_x_at) / RFU TMEM51 (11727254_a_at) / Fold change /veh TMEM51 (11727254_a_at) / RFU PIWIL2 (11732686_x_at) / Fold change /veh PIWIL2 (11732686_x_at) / RFU ORM1 (11744905_x_at) / Fold change /veh ORM1 (11744905_x_at) / RFU CCDC152 (11743942_at) / Fold change /veh CCDC152 (11743942_at) / RFU ECM1 (11717891_a_at) / Fold change /veh ECM1 (11717891_a_at) / RFU IL23R (11748794_a_at) / Fold change /veh IL23R (11748794_a_at) / RFU TNFAIP8L3 (11732012_x_at) / Fold change /veh TNFAIP8L3 (11732012_x_at) / RFU MBOAT4 (11741988_at) / Fold change /veh MBOAT4 (11741988_at) / RFU 11764193_at / Fold change /veh 11764193_at / RFU TMEM53 (11763286_at) / Fold change /veh TMEM53 (11763286_at) / RFU MAGEB2 (11727129_at) / Fold change /veh MAGEB2 (11727129_at) / RFU TMEM200A (11744735_a_at) / Fold change /veh TMEM200A (11744735_a_at) / RFU CCDC152 (11751479_a_at) / Fold change /veh CCDC152 (11751479_a_at) / RFU FAM211A (11726209_a_at) / Fold change /veh FAM211A (11726209_a_at) / RFU RGS16 (11746705_a_at) / Fold change /veh RGS16 (11746705_a_at) / RFU VCAN (11755009_s_at) / Fold change /veh VCAN (11755009_s_at) / RFU RHOB (11743442_s_at) / Fold change /veh RHOB (11743442_s_at) / RFU RGS16 (11720943_a_at) / Fold change /veh RGS16 (11720943_a_at) / RFU RGS16 (11720944_at) / Fold change /veh RGS16 (11720944_at) / RFU, VPS4B / Fold change vs veh, VPS4B / RFU, CREB1 / Fold change vs veh, CREB1 / RFU, DNAJC13 / Fold change vs veh, DNAJC13 / RFU, GNAQ / Fold change vs veh, GNAQ / RFU, CDK5R1 / Fold change vs veh, CDK5R1 / RFU, ZRANB3 / Fold change vs veh, ZRANB3 / RFU, CUL4A / Fold change vs veh, CUL4A / RFU, CCNY / Fold change vs veh, CCNY / RFU, UFL1 / Fold change vs veh, UFL1 / RFU, COG3 / Fold change vs veh, COG3 / RFU, DIAPH2 / Fold change vs veh, DIAPH2 / RFU, SKA2 / Fold change vs veh, SKA2 / RFU, AFF3 / Fold change vs veh, AFF3 / RFU, LMF1 / Fold change vs veh, LMF1 / RFU, IPO11 / Fold change vs veh, IPO11 / RFU, DFFB / Fold change vs veh, DFFB / RFU, FOXP1 / Fold change vs veh, FOXP1 / RFU, CARD8 / Fold change vs veh, CARD8 / RFU, STRN3 / Fold change vs veh, STRN3 / RFU, ADK / Fold change vs veh, ADK / RFU, RASSF2 / Fold change vs veh, RASSF2 / RFU, WIPF1 / Fold change vs veh, WIPF1 / RFU, LARP1B / Fold change vs veh, LARP1B / RFU, RASA1 / Fold change vs veh, RASA1 / RFU, RB1 / Fold change vs veh, RB1 / RFU, PPFIA1 / Fold change vs veh, PPFIA1 / RFU, MAT2A / Fold change vs veh, MAT2A / RFU, CCT5 / Fold change vs veh, CCT5 / RFU, WDR92 / Fold change vs veh, WDR92 / RFU, CUX1 / Fold change vs veh, CUX1 / RFU, TTC7A / Fold change vs veh, TTC7A / RFU, TMEM135 / Fold change vs veh, TMEM135 / RFU, DEPTOR / Fold change vs veh, DEPTOR / RFU, CPM / Fold change vs veh, CPM / RFU, DNAJB6 / Fold change vs veh, DNAJB6 / RFU, CACNA2D3 / Fold change vs veh, CACNA2D3 / RFU, DTX4 / Fold change vs veh, DTX4 / RFU, TFCP2 / Fold change vs veh, TFCP2 / RFU, GMCL1 /// GMCL1P1 / Fold change vs veh, GMCL1 /// GMCL1P1 / RFU, AEBP2 / Fold change vs veh, AEBP2 / RFU, SNHG1 /// SNORD22 /// SNORD25 /// SNORD26 /// SNORD27 /// SNORD28 /// SNORD29 /// SNORD31 / Fold change vs veh, SNHG1 /// SNORD22 /// SNORD25 /// SNORD26 /// SNORD27 /// SNORD28 /// SNORD29 /// SNORD31 / Fold change (Aza/veh), C12orf56 (ProbeSet 11735607_a_at) / Fold change (ACY-1035/veh), C12orf56 (ProbeSet 11735607_a_at) / Fold change (Aza/veh), FGFR1OP (ProbeSet 11751329_s_at) / Fold change (ACY-1035/veh), FGFR1OP (ProbeSet 11751329_s_at) / Fold change (Aza/veh), VPS36 (ProbeSet 11739960_a_at) / Fold change (ACY-1035/veh), VPS36 (ProbeSet 11739960_a_at) / RFU SYPL1 (11715823_x_at) / Fold change /veh SYPL1 (11715823_x_at) / RFU IGFBP7 (11715501_s_at) / Fold change /veh IGFBP7 (11715501_s_at) / RFU REEP3 (11722064_at) / Fold change /veh REEP3 (11722064_at) / RFU IGLL1 (11728026_x_at) / Fold change /veh IGLL1 (11728026_x_at): dose or concentration left out as unconfirmed
Details: MV-4-11 cells, 48 hours

Question: Which “RFU CYB561 (11721691_x_at)” value does the source give for `Nc1ncn([C@@H]2O[C@H](CO)[C@@H](O)[C@H]2O)c(=O)n1` [azacitidine] here?
Answer: Its value is 13.47 RFU.
